Results from patent US20240002450A1 (priority 2020, published 2024).
Bridge positions count the residues as written; N and C are the ends. Square brackets hold non-standard residues; d marks the D form. Peptide text beside a SMILES is read from it. S5 = C=CCCC[C@](C)(N)C(=O)O; βAla = NCCC(=O)O

Tests used:
[1] = system: Huh-7 hepatocellular carcinoma cells
Zaire Ebola virus = type: cell-based
Makona variant of EBOV = type: cell-based, Ebola virus

Row | Compound | cell permeability (ability to enter cells) [1] | infected cells after 24 hours of infection (Zaire Ebola virus) | inhibition of virus infection at six hours post-infection (Zaire Ebola virus) | antiviral activity (prevention of EBOV infection) (Makona variant of EBOV)
1 | CC[C@H](C)[C@H](NC(=O)[C@H](CCC(N)=O)NC(=O)[C@H](CC(N)=O)NC(=O)[C@@H](NC(=O)[C@]1(C)CCCC=CCCC[C@](C)(NC(=O)[C@H](CCCCN)NC(=O)[C@@H](NC(=O)[C@H](Cc2c[nH]c3ccccc23)NC(=O)[C@H](CC(N)=O)NC(=O)[C@H](Cc2c[nH]cn2)NC(=O)CCNC(C)=O)[C@@H](C)O)C(=O)N[C@@H]([C@@H](C)CC)C(=O)N[C@@H]([C@@H](C)O)C(=O)N[C@@H](CC(N)=O)C(=O)N1)[C@@H](C)CC)C(=O)N[C@H](C(=O)N[C@@H](Cc1c[nH]cn1)C(=O)N[C@@H](CC(=O)O)C(=O)N[C@@H](Cc1ccccc1)C(=O)N[C@H](C(=O)N[C@@H](CC(N)=O)C(=O)N[C@@H](CCCCN)C(N)=O)C(C)C)[C@@H](C)CC [SEboV-9, HNWTKX1ITNX2INQIIHDFVNK, wherein each of X1 and X2 is (S)-2-(4′-pentenyl)Alanine] (Ac-[βAla]HNWTK[S5]ITN[S5]INQIIHDFVNK-NH2; staple 7-11) | readily penetrated cells | – | – | –
2 | HDWTX1NIX2DKIX3QIIHDFVDK, wherein X1 is (S)-2-(4′-pentenyl)Alanine, X2 is 2,2-bis(4-pentenyl)glycine, and X3 is (S)-2-(4′-pentenyl)Alanine [Ac5] | – | almost no infected cells | inhibited the virus | –
3 | HX1WTKX2ITDKINQIIHDFVNK, wherein each of X1 and X2 is (S)-2-(4′-pentenyl)Alanine [SEboV-2] | – | – | – | displayed antiviral activity
4 | HX1WTKNITX2KINQIIHDFVNK, wherein X1 is (R)-2-(7′-octenyl) alanine and X2 is (S)-2-(4′-pentenyl)Alanine [SEboV-1] | – | – | – | displayed antiviral activity
5 | X1DWTKNIX2DKIDQIIHDFVDK, wherein X1 is (R)-2-(7′-octenyl) alanine and X2 is (S)-2-(4′-pentenyl)Alanine [Ac4] | – | almost no infected cells | inhibited the virus | –
6 | HX1WTKX2ITDKIDQIIHDFVDK, wherein each of X1 and X2 is (S)-2-(4′-pentenyl)Alanine [Ac3] | – | almost no infected cells | inhibited the virus | –
7 | CC[C@H](C)[C@H](NC(=O)[C@H](CCCCN)NC(=O)[C@H](CC(=O)O)NC(=O)[C@@H](NC(=O)[C@@H](NC(=O)[C@H](CC(N)=O)NC(=O)[C@H](CCCCN)NC(=O)[C@@H](NC(=O)[C@H](Cc1c[nH]c2ccccc12)NC(=O)[C@H](CC(=O)O)NC(=O)[C@H](Cc1c[nH]cn1)NC(=O)CCNC(C)=O)[C@@H](C)O)[C@@H](C)CC)[C@@H](C)O)C(=O)N[C@@H](CC(=O)O)C(=O)N[C@@H](CCC(N)=O)C(=O)N[C@H](C(=O)N[C@H](C(=O)N[C@@H](Cc1c[nH]cn1)C(=O)N[C@@H](CC(=O)O)C(=O)N[C@@H](Cc1ccccc1)C(=O)N[C@H](C(=O)N[C@@H](CC(=O)O)C(=O)N[C@@H](CCCCN)C(N)=O)C(C)C)[C@@H](C)CC)[C@@H](C)CC [WT EboV, reference compound] | not cell permeable | – | – | –
8 | HDWTKNITDKIX1QIIX2DFVDK, wherein each of X1 and X2 is (S)-2-(4′-pentenyl)Alanine [Ac9] | – | almost no infected cells | inhibited the virus | –
